Data published in ChEMBL document CHEMBL3745675, “Design and optimization of selective azaindole amide M1 positive allosteric modulators” (Bioorg Med Chem Lett, 2016).

Tests used:
[1] = Drug concentration in Wistar Hann rat CSF at 5 mg/kg, sc after 4 hrs; type: ADME, organism-based, Cerebrospinal fluid; settings: read-out: Drug uptake
[2] = Ratio of unbound AUC in CSF to plasma in Wistar Hann rat at 5 mg/kg, sc after 2 hrs; type: ADME, organism-based; settings: CSF and plasma, read-out: Ratio AUC
Plasma [3] = test: Fraction unbound in C57BL/6j mouse plasma at 10 mg/kg, sc after 1 hr; type: ADME, organism-based; settings: in vivo
[4] = Ratio of unbound AUC in brain to plasma in Wistar Hann rat at 5 mg/kg, sc after 6 hrs; type: ADME, organism-based; settings: brain and plasma, read-out: Ratio AUC
[5] = Ratio drug level in brain to plasma in C57BL/6j mouse at 10 mg/kg, sc after 2 hrs; type: ADME, organism-based; settings: read-out: BPR
[6] = Drug concentration in Wistar Hann rat CSF at 5 mg/kg, sc after 1 hr; type: ADME, organism-based, Cerebrospinal fluid; settings: read-out: Drug uptake
[7] = Ratio of drug level in brain to plasma in Wistar Hann rat at 5 mg/kg, sc after 6 hrs; type: ADME, organism-based
[8] = Ratio of unbound AUC in brain to plasma in C57BL/6j mouse at […], sc after 1 hr; type: ADME, organism-based; settings: read-out: Ratio AUC
[9] = Intial plasma concentration in Wistar Hann rat at 0.5 mg/kg, iv; type: ADME, organism-based
[10] = Drug concentration in Wistar Hann rat CSF at 5 mg/kg, sc after 6 hrs; type: ADME, organism-based, Cerebrospinal fluid; settings: read-out: Drug uptake
[11] = Ratio drug level in brain to plasma in C57BL/6j mouse at 10 mg/kg, sc after 0.5 hrs; type: ADME, organism-based; settings: read-out: BPR
[12] = Permeability in RRCK cells; type: ADME, cell-based, Canis lupus familiaris, MDCKII-LE; settings: dog, MDCK; read-out: permeability
[13] = Drug concentration in Wistar Hann rat brain at 5 mg/kg, sc after 6 hrs; type: ADME, organism-based; settings: read-out: Drug uptake
[14] = Tmax in Wistar Hann rat at 2 mg/kg, po; type: ADME, organism-based; settings: in vivo
Plasma [15] = test: Fraction unbound in C57BL/6j mouse plasma at 10 mg/kg, sc after 2 hrs; type: ADME, organism-based; settings: in vivo
[16] = Ratio of drug level in CSF to plasma in Wistar Hann rat at 5 mg/kg, sc after 2 hrs; type: ADME, organism-based; settings: CSF and plasma
[17] = Ratio of drug level in CSF to plasma in Wistar Hann rat at 5 mg/kg, sc after 1 hr; type: ADME, organism-based; settings: CSF and plasma
[18] = Ratio of unbound AUC in CSF to plasma in Wistar Hann rat at 5 mg/kg, sc after 4 hrs; type: ADME, organism-based; settings: CSF and plasma, read-out: Ratio AUC
[19] = Cmax in Wistar Hann rat brain at 5 mg/kg, sc; type: ADME, organism-based; parameters: dose 5 mg/kg, route subcutaneous
[20] = AUC (0 to tlast) in Wistar Hann rat CSF at 5 mg/kg, sc; type: ADME, organism-based, Cerebrospinal fluid
[21] = AUC in Wistar Hann rat at 2 mg/kg, po; type: ADME, organism-based; settings: in vivo
[22] = Ratio of unbound AUC in brain to plasma in C57BL/6j mouse at 10 mg/kg, sc after 2 hrs; type: ADME, organism-based; settings: read-out: Ratio AUC
[23] = AUC (0 to infinity) in Wistar Hann rat plasma at 5 mg/kg, sc; type: ADME, organism-based; parameters: dose 5 mg/kg, time infinity, route subcutaneous
[24] = Ratio of unbound AUC in brain to plasma in Wistar Hann rat at 5 mg/kg, sc after 4 hrs; type: ADME, organism-based; settings: brain and plasma, read-out: Ratio AUC
Plasma [25] = test: Fraction unbound in C57BL/6j mouse plasma; type: ADME, cell-free
[26] = Ratio of unbound AUC in brain to plasma in Wistar Hann rat at 5 mg/kg, sc after 1 hr; type: ADME, organism-based; settings: read-out: Ratio AUC
[27] = Ratio of unbound AUC in brain to plasma in Wistar Hann rat; type: ADME, organism-based; settings: read-out: Ratio AUC
[28] = AUC (0 to 24 hrs) in Wistar Hann rat at 0.5 mg/kg, iv; type: ADME, organism-based; parameters: dose 0.5 mg/kg, time < 24 hr, route intravenous; settings: in vivo
[29] = Ratio of drug level in CSF to plasma in Wistar Hann rat at 5 mg/kg, sc after 6 hrs; type: ADME, organism-based; settings: CSF and plasma
[30] = Ratio of unbound AUC in CSF to plasma in Wistar Hann rat at 5 mg/kg, sc after 6 hrs; type: ADME, organism-based; settings: CSF and plasma, read-out: Ratio AUC
[31] = Ratio of unbound AUC in brain to plasma in Wistar Hann rat at 5 mg/kg, sc after 2 hrs; type: ADME, organism-based; settings: brain and plasma, read-out: Ratio AUC
[32] = Ratio drug level in brain to plasma in C57BL/6j mouse at 10 mg/kg, sc after 1 hr; type: ADME, organism-based; settings: read-out: BPR
[33] = Drug concentration in Wistar Hann rat CSF at 5 mg/kg, sc after 2 hrs; type: ADME, organism-based, Cerebrospinal fluid; settings: read-out: Drug uptake
[34] = Ratio of drug level in brain to plasma in Wistar Hann rat at 5 mg/kg, sc after 4 hrs; type: ADME, organism-based
Plasma [35] = test: Fraction unbound in Wistar Hann rat plasma at 5 mg/kg, sc after 6 hrs; type: ADME, organism-based; settings: in vivo
[36] = Ratio of unbound AUC in CSF to plasma in Wistar Hann rat at 5 mg/kg, sc after 1 hr; type: ADME, organism-based; settings: CSF and plasma, read-out: Ratio AUC

## Cn1ccc(-c2ccc(Cn3cc(C(=O)N[C@H]4CCOC[C@@H]4O)c4ncccc43)cc2)n1
[1]
  concentration at 4 h: 76.2 nM
[2]
  Kp uu at 2 h: 0.29
Plasma [3]
  Cp(f): 560 nM
[4]
  Kp uu at 6 h: 0.14
[5]
  Kp at 2 h: 0.06
[6]
  concentration at 1 h: 133 nM
[7]
  Kp at 6 h: 0.19
[8]
  Kp uu at 1 h: 0.1
[9]
  C0: 535 ng/mL
[10]
  concentration at 6 h: 54.3 nM
[11]
  Kp at 0.5 h: 0.14
[12]
  Papp: 31.5 ×10⁻⁶ cm/s
[13]
  concentration at 6 h: 409 nM
[14]
  Tmax: 1.5 h
Plasma [15]
  Cp(f): 379 nM
[16]
  Kp at 2 h: 0.03
[17]
  Kp at 1 h: 0.03
[18]
  Kp uu at 4 h: 0.27
[19]
  Cmax: 453 ng/mL
[20]
  AUC(0-t): 240 ng·h/mL
[21]
  AUC: 4510 ng·h/mL
[22]
  Kp uu at 2 h: 0.16
[23]
  AUC(0-inf): 13400 ng·h/mL
[24]
  Kp uu at 4 h: 0.16
Plasma [25]
  Cp(f): 0.027 nM
[26]
  Kp uu at 1 h: 0.15
[27]
  Kp uu: 0.15
[28]
  AUC(0-t) at 24 h: 1660 ng·h/mL
[29]
  Kp at 6 h: 0.02
[30]
  Kp uu at 6 h: 0.27
[31]
  Kp uu at 2 h: 0.13
[32]
  Kp at 1 h: 0.07
[33]
  concentration at 2 h: 144 nM
[34]
  Kp at 4 h: 0.22
Plasma [35]
  Cp(f): 197.5 nM
[36]
  Kp uu at 1 h: 0.29
